Source: US20060198907A1, “Pharmaceutical, therapeutic, and dietary compositions derived from Lagerstroemia speciosa L. plant” (priority 2004, published 2006)

Target: xanthine oxidase (Homo sapiens, UniProt P47989)
Test: Inhibition of xanthine oxidase activity
Assay type: biochemical
Conditions: observed by the inventors, in words

Sequence of xanthine oxidase (P47989 whole entry, species assumed): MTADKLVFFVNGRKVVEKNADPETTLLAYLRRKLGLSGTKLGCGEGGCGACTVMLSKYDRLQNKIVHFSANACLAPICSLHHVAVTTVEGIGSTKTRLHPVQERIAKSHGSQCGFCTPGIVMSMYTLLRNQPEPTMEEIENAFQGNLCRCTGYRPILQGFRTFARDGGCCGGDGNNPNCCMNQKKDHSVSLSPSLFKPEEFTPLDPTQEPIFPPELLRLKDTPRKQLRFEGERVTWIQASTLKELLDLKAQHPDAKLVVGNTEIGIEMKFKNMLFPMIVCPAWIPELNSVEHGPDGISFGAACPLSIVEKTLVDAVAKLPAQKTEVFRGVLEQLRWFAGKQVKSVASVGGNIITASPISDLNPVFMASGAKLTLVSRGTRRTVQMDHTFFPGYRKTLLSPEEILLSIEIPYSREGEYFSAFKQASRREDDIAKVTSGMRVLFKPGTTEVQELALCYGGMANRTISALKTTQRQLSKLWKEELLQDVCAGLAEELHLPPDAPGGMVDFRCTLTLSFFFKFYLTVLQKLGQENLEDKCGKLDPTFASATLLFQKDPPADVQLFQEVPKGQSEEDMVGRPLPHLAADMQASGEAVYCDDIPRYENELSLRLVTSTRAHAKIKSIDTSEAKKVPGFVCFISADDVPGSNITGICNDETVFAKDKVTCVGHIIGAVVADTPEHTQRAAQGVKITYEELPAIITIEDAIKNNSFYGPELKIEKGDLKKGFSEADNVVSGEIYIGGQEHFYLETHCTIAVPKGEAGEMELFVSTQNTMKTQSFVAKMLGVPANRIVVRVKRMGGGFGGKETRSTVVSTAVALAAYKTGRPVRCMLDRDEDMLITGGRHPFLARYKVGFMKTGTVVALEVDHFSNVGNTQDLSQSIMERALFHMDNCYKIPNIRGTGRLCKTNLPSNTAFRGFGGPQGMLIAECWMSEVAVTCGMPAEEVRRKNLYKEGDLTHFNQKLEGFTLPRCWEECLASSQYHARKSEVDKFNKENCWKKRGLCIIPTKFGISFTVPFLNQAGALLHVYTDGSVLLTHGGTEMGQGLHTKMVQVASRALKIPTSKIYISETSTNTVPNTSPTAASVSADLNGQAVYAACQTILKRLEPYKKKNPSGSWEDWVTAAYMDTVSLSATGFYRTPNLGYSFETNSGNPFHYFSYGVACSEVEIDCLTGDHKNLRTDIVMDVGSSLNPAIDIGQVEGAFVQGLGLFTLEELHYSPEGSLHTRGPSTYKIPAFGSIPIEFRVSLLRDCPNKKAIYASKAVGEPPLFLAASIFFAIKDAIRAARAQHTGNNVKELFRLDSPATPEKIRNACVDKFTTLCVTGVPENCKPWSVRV

inhibition of xanthine oxidase activity: inhibition of xanthine oxidase activity
Compound: O=C(O)c1cc(O)c(O)c(O)c1Oc1cc2c(=O)oc3c(O)c(O)cc4c(=O)oc(c1O)c2c34 [valoneic acid dilactone]
